The test has as its target T1, dCTP pyrophosphatase 1 (Homo sapiens, UniProt Q9H773).
T1 sequence (Q9H773 whole entry): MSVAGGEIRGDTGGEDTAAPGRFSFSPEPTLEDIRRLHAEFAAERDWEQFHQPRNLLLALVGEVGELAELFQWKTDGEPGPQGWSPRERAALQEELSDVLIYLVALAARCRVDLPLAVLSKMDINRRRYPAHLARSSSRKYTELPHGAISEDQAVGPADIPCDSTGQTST
Briefly: Inhibition of human dCTPase 1.

In general, IC50 refers to the concentration that inhibits the measured activity by half. A low value points to greater potency.

Consider `CCn1c2ccccc2c2nnc(SCCN3CCCCC3)nc21`, for which the IC50 is 0.94 µM.

In turn, `Cn1c2ccccc2c2nnc(SCCN3CCCCC3)nc21` gave an IC50 of 1.91 µM.

As to `COc1ccc2c(c1)c1nnc(SCCN3CCOCC3)nc1n2C`, inhibition was half-maximal at 0.55 µM (IC50). Against the preceding molecule, the IC50 is about 3.5-fold lower.

Turning to `COc1ccccc1C(=O)N1CCN(c2cnn(-c3ccccc3)c(=O)c2Cl)CC1`, half-maximal inhibition (IC50) was put at 0.66 µM.

`O=C(c1ccccc1Cl)N1CCN(c2ccc([N+](=O)[O-])c(NC3CC3)c2)CC1` displayed an IC50 of 1.1 µM.

In turn, `O=C(c1ccco1)N1CCN(c2nc3ccccc3n3cnnc23)CC1` showed an IC50 of 0.98 µM.

The molecule `CCNc1cc(N2CCN(C(=O)c3ccc(CC)cc3)CC2)ccc1[N+](=O)[O-]` returned an IC50 of 0.91 µM. The IC50 values of the last two molecules are within 1.5-fold of each other.

With `CCNc1cc(N2CCN(C(=O)c3ccc(OC)cc3)CC2)ccc1[N+](=O)[O-]`, the midpoint of inhibition, the IC50, lay at 1.5 µM.

Regarding `CS(=O)(=O)N1CCN(c2cnn(-c3ccccc3)c(=O)c2Cl)CC1`, the IC50 was found to be 3.2 µM.

Consider `CC(C)(C)c1cc(=O)[nH]c(N2CCN(Cc3ccc4c(c3)OCO4)CC2)n1`, for which the half-maximal inhibitory concentration (IC50) was 1.1 µM.

`CCc1c(C)nc(N2CCN(c3ccc(OC)cc3)CC2)nc1O` registered a half-inhibitory concentration (IC50) of 1.1 µM.

As for `CCc1c(C)nc(N2CCN(c3cccc(OC)c3)CC2)nc1O`, the IC50 came to 1.4 µM.

In turn, `CCOc1ccc(C(=O)N2CCN(c3cnn(-c4ccccc4)c(=O)c3Cl)CC2)cc1` registered an IC50 of 1.2 µM.

In turn, `CCNc1cc(N2CCN(C(=O)c3ccccc3C)CC2)ccc1[N+](=O)[O-]` had an IC50 of 0.81 µM.

For the origin of these results see ChEMBL document CHEMBL4052744, “Diverse heterocyclic scaffolds as dCTP pyrophosphatase 1 inhibitors. Part 1: Triazoles, triazolopyrimidines, triazinoindoles, quinoline hydrazones and arylpiperazines” (Bioorg Med Chem Lett, 2017).
